Assay results reported in article PMC2996728 (Archives of biochemistry and biophysics, 2009).

Molecular target: T1, Microsomal glutathione transferase 1 (MGST1) (Rattus norvegicus, UniProt P08011)
T1 sequence (P08011 2-155): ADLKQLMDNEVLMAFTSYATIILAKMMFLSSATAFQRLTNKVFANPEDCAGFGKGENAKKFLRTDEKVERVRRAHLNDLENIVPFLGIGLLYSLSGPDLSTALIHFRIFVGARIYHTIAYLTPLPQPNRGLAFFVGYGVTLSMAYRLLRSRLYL
Experiment: equilibrium dialysis
Type: binding

Structure (SMILES): N[C@@H](CCC(=O)N[C@@H](CSc1ccc([N+](=O)[O-])cc1[N+](=O)[O-])C(=O)NCC(=O)O)C(=O)O [GSDNB, 1-S-glutathionyl-2,4-dinitrobenzene]
- Kd: 320 ± 50 µM
